Tested on: RSV Long strain
Assay: Viral cytopathic effect (CPE) assay, anti-RSV activity
Type: cell-based, Respiratory Syncytial Virus
Conditions: RSV Long strain (ATCC), cell viability after 6 days, Cell Counting kit-8
Method: Viral cytopathic effect (CPE) assay: To measure anti-RSV activity of compounds, 96-well plates are seeded with 6×10^3 cells per well in Dulbecco's modified Eagle's medium (DMEM) containing 10% fetal bovine serum (FBS). Cells are infected the next day with sufficient RSV Long strain (ATCC) to produce an approximately 80-90% cytopathic effect after 6 days, in the presence of serial half-log diluted compound in a total volume of 200 μL per well. The viability of cells is assessed after 6 days using Cell Counting kit-8 (Dojindo Molecular Technologies). The absorbance at 450 nm and referenced at 630 nm is measured to determine 50% effective concentration (EC50).
The compounds of the present invention were tested for their anti-RSV activity, and the activation as described herein. The Examples were tested in the above assay and found to have EC50 of about 0.0001 μM to about 10 μM.

[1] = human respiratory syncytial virus, 144 h

Row | EC50 [µM] | EC50 [1] [µM] | Compound
1 | 0.024 | – | Cc1ccc2nc(N3CC[S+]([O-])c4ccccc4C3)cc(NCC3(N)COC3)c2c1 (single isomer, unassigned; (+)) [Example 18-2, (+)-N-[(3-Aminooxetan-3-yl)methyl]-6-methyl-2-[1-oxido-2,3-dihydro-1,4-benzothiazepin-4(5H)-yl]quinolin-4-amine]
2 | 0.0013 | – | Cc1ccc2nc(N3CC[S+]([O-])c4ccccc4C3)nc(NCC3(CN)COC3)c2c1 (single isomer, unassigned; (+)) [Example 62-3, (+)-N-{[3-(Aminomethyl)oxetan-3-yl]methyl}-6-methyl-2-[1-oxido-2,3-dihydro-1,4-benzothiazepin-4(5H)-yl]quinazolin-4-amine]
3 | 0.014 | – | Cc1ccc2nc(N3CC[S+]([O-])c4ccccc4C3)cc(NCC3(N)COC3)c2c1 (single isomer, unassigned; (-)) [Example 18-3, (−)-N-[(3-Aminooxetan-3-yl)methyl]-6-methyl-2-[1-oxido-2,3-dihydro-1,4-benzothiazepin-4(5H)-yl]quinolin-4-amine]
4 | 0.0017 | – | Cc1ccc2nc(N3CC[S+]([O-])c4ccccc4C3)nc(NCC3(CN)COC3)c2c1 (single isomer, unassigned; (-)) [Example 62-2]
5 | – | 0.002 | COc1ccc2c(c1)S(=O)(=O)CCN(c1cc(NCC3(N)COC3)c3cc(C)ccc3n1)C2 [Example 1-1, N-[(3-Aminooxetan-3-yl)methyl]-2-(8-methoxy-1,1-dioxido-2,3-dihydro-1,4-benzothiazepin-4(5H)-yl)-6-methylquinolin-4-amine]
6 | – | 0.007 | Cc1ccc2nc(N3CCS(=O)(=O)c4cc(F)ccc4C3)cc(NCC3(N)COC3)c2c1 [Example 1-2, N-[(3-Aminooxetan-3-yl)methyl]-2-(8-fluoro-1,1-dioxido-2,3-dihydro-1,4-benzothiazepin-4(5H)-yl)-6-methylquinolin-4-amine]
7 | – | 0.072 | Cc1ccc2nc(N3CCS(=O)(=O)c4ccc(F)cc4C3)cc(NCC3(N)COC3)c2c1 [Example 1-3, N-[(3-Aminooxetan-3-yl)methyl]-2-(7-fluoro-1,1-dioxido-2,3-dihydro-1,4-benzothiazepin-4(5H)-yl)-6-methylquinolin-4-amine]
8 | – | 0.004 | Cc1ccc2nc(N3CCS(=O)(=O)c4c(F)cccc4C3)cc(NCC3(N)COC3)c2c1 [Example 1-4, N-[(3-Aminooxetan-3-yl)methyl]-2-(9-fluoro-1,1-dioxido-2,3-dihydro-1,4-benzothiazepin-4(5H)-yl)-6-methylquinolin-4-amine]
9 | – | 0.004 | COc1ccc2c(c1)CN(c1cc(NCC3(N)COC3)c3cc(C)ccc3n1)CCS2(=O)=O [Example 1-5, N-[(3-Aminooxetan-3-yl)methyl]-2-(7-methoxy-1,1-dioxido-2,3-dihydro-1,4-benzothiazepin-4(5H)-yl)-6-methylquinolin-4-amine]
10 | – | 0.022 | Cc1ccc2nc(N3CCS(=O)(=O)c4cc(Cl)ccc4C3)cc(NCC3(N)COC3)c2c1 [Example 1-6, N-[(3-Aminooxetan-3-yl)methyl]-2-(8-chloro-1,1-dioxido-2,3-dihydro-1,4-benzothiazepin-4(5H)-yl)-6-methylquinolin-4-amine]
11 | – | 0.022 | COc1ccc2c(c1)CN(c1cc(NCC3(N)COC3)c3ccccc3n1)CCS2(=O)=O [Example 1-7, N-[(3-Aminooxetan-3-yl)methyl]-2-(7-methoxy-1,1-dioxido-2,3-dihydro-1,4-benzothiazepin-4(5H)-yl)-quinolin-4-amine]
12 | – | 0.024 | Cc1ccc2nc(N3CCS(=O)(=O)c4ccccc4C3)cc(NCC3(N)CCOC3)c2c1 (stereo not shown) [Example 2-1, N-[(3-Aminotetrahydrofuran-3-yl)methyl]-2-(1,1-dioxido-2,3-dihydro-1,4-benzothiazepin-4(5H)-yl)-6-methylquinolin-4-amine]
13 | – | 0.002 | Cc1ccc2nc(N3CCS(=O)(=O)c4ccccc4C3)cc(NCC3(N)COC3)c2c1 [Example 2-2, N-[(3-Aminooxetan-3-yl)methyl]-2-(1,1-dioxido-2,3-dihydro-1,4-benzothiazepin-4(5H)-yl)-6-methylquinolin-4-amine]
14 | – | 2.81 | Cc1ccc2nc(N3CCS(=O)(=O)c4ccccc4C3)cc(NCC3(N)CCOCC3)c2c1 [Example 2-3, N-[(4-Aminotetrahydro-2H-pyran-4-yl)methyl]-2-(1,1-dioxido-2,3-dihydro-1,4-benzothiazepin-4(5H)-yl)-6-methylquinolin-4-amine]
15 | – | 0.081 | Cc1ccc2c(c1)S(=O)(=O)CCN(c1cc(NCC3(N)COC3)c3ccccc3n1)C2 [Example 2-4, N-[(3-Aminooxetan-3-yl)methyl]-2-(8-methyl-1,1-dioxido-2,3-dihydro-1,4-benzothiazepin-4(5H)-yl)-quinolin-4-amine]
16 | – | 0.006 | Cc1ccc2c(c1)S(=O)(=O)CCN(c1cc(NCC3(N)COC3)c3cc(C)ccc3n1)C2 [Example 2-5, N-[(3-Aminooxetan-3-yl)methyl]-6-methyl-2-(8-methyl-1,1-dioxido-2,3-dihydro-1,4-benzothiazepin-4(5H)-yl)quinolin-4-amine]

Row | EC50 [µM] | EC50 [1] [µM] | Compound
17 | – | 0.021 | Cc1ccc2nc(N3CCS(=O)(=O)c4ccccc4C3)cc(NC3CNCC34COC4)c2c1 (stereo not shown) [Example 2-6, 2-(1,1-Dioxido-2,3-dihydro-1,4-benzothiazepin-4(5H)-yl)-6-methyl-N-(2-oxa-6-azaspiro[3.4]oct-8-yl)quinolin-4-amine]
18 | – | 0.234 | Cc1ccc2nc(N3CCS(=O)(=O)c4ccccc4C3)cc(NCCC3(N)COC3)c2c1 [Example 2-7, N-[2-(3-Aminooxetan-3-yl)ethyl]-2-(1,1-dioxido-2,3-dihydro-1,4-benzothiazepin-4(5H)-yl)-6-methylquinolin-4-amine]
19 | – | 0.055 | Cc1ccc2nc(N3CCS(=O)(=O)c4ccccc4C3C)cc(NCC3(N)COC3)c2c1 (stereo not shown) [Example 2-8, N-[(3-Aminooxetan-3-yl)methyl]-6-methyl-2-(5-methyl-1,1-dioxido-2,3-dihydro-1,4-benzothiazepin-4(5H)-yl)quinolin-4-amine]
20 | – | 0.007 | COc1ccc2c(c1)S(=O)(=O)CCN(c1cc(NCC3(N)COC3)c3ccccc3n1)C2 [Example 2-9, N-[(3-Aminooxetan-3-yl)methyl]-2-(8-methoxy-1,1-dioxido-2,3-dihydro-1,4-benzothiazepin-4(5H)-yl)quinolin-4-amine]
21 | – | 0.005 | NC1(CNc2cc(N3CCS(=O)(=O)c4ccccc4C3)nc3ccncc23)COC1 [Example 2-10, N-[(3-Aminooxetan-3-yl)methyl]-2-(1,1-dioxido-2,3-dihydro-1,4-benzothiazepin-4(5H)-yl)-1,6-naphthyridin-4-amine]
22 | – | 0.008 | Cc1ccc2nc(N3CCS(=O)(=O)c4ccccc4C3)cc(NCC3(N)CCCCC3)c2c1 [Example 2-11, N-[(1-Aminocyclohexyl)methyl]-2-(1,1-dioxido-2,3-dihydro-1,4-benzothiazepin-4(5H)-yl)-6-methylquinolin-4-amine]
23 | – | 0.006 | Cc1ccc2nc(N3CCS(=O)(=O)c4cc(F)ccc4C3)cc(NCC3(CN)COC3)c2c1 [Example 3-1, N-{[3-(Aminomethyl)oxetan-3-yl]methyl}-2-(8-fluoro-1,1-dioxido-2,3-dihydro-1,4-benzothiazepin-4(5H)-yl)-6-methylquinolin-4-amine]
24 | – | 3.05 | O=S1(=O)CCN(c2cc(NCC3(NCc4ccccc4)COC3)c3cc(Cl)ccc3n2)Cc2cc(F)ccc21 [Example 3-2, N-{[3-(Benzylamino)oxetan-3-yl]methyl}-6-chloro-2-(7-fluoro-1,1-dioxido-2,3-dihydro-1,4-benzothiazepin-4(5H)-yl)quinolin-4-amine]
25 | – | 3.55 | NC1(CNc2cc(N3CCS(=O)(=O)c4ccc(F)cc4C3)nc3ccc(Cl)cc23)COC1 [Example 3-3, N-[(3-Aminooxetan-3-yl)methyl]-6-chloro-2-(7-fluoro-1,1-dioxido-2,3-dihydro-1,4-benzothiazepin-4(5H)-yl)quinolin-4-amine]
26 | – | 0.006 | COc1ccc2c(c1)CN(c1cc(NCC3(CN)COC3)c3ccccc3n1)CCS2(=O)=O [Example 3-4, N-{[3-(Aminomethyl)oxetan-3-yl]methyl}-2-(7-methoxy-1,1-dioxido-2,3-dihydro-1,4-benzothiazepin-4(5H)-yl)-quinolin-4-amine]
27 | – | 0.002 | COc1ccc2c(c1)CN(c1cc(NCC3(CN)COC3)c3cc(C)ccc3n1)CCS2(=O)=O [Example 3-5, N-{[3-(Aminomethyl)oxetan-3-yl]methyl}-2-(7-methoxy-1,1-dioxido-2,3-dihydro-1,4-benzothiazepin-4(5H)-yl)-6-methylquinolin-4-amine]
28 | – | 0.058 | COc1ccc2c(c1)CN(c1cc(NCC3(CNC(C)=O)COC3)c3cc(C)ccc3n1)CCS2(=O)=O [Example 3-6, N-{[3-({[2-(7-Methoxy-1,1-dioxido-2,3-dihydro-1,4-benzothiazepin-4(5H)-yl)-6-methylquinolin-4-yl]amino}methyl)oxetan-3-yl]methyl}acetamide]
29 | – | 0.009 | Cc1ccc2c(c1)S(=O)(=O)CCN(c1cc(NCC3(CN)COC3)c3ccccc3n1)C2 [Example 3-7]
30 | – | 0.002 | Cc1ccc2c(c1)S(=O)(=O)CCN(c1cc(NCC3(CN)COC3)c3cc(C)ccc3n1)C2 [Example 3-8, N-{[3-(Aminomethyl)oxetan-3-yl]methyl}-6-methyl-2-(8-methyl-1,1-dioxido-2,3-dihydro-1,4-benzothiazepin-4(5H)-yl)quinolin-4-amine]
31 | – | 0.248 | Cc1ccc2nc(N3CCS(=O)(=O)c4ccccc4C3)cc(NCC3(CO)COC3)c2c1 [Example 3-9, [3-({[2-(1,1-Dioxido-2,3-dihydro-1,4-benzothiazepin-4(5H)-yl)-6-methylquinolin-4-yl]amino}methyl)oxetan-3-yl]methanol]

Reference: US8871756B2 (Hoffmann-La Roche Inc., priority 2011, dated 2014)
